Values after ≈ are worked out from the molar mass of the structure shown. Where two headings read alike, the source gives them in different places.
What was measured:
[1] = test system: E. faecalis GC 2265; experiment: MIC, broth microdilution; settings: Enterococcus faecalis
Experimental: (§1) Antimicrobial susceptibility testing. The in vitro activities of the antibiotics are determined by the broth microdilution method as recommended by the National Committee for Clinical Laboratory Standards (NCCLS) (1). Mueller-Hinton II broth (MHBII)(BBL Cockeysville, Md.) is the medium employed in the testing procedures. Microtiter plates containing serial dilutions of each antimicrobial agent are inoculated with each organism to yield the appropriate density (10^5 CFU/ml) in a 100 μl final volume. The plates are incubated for 18-22 hours at 35° C. in ambient air.
(§2) Representative compounds were first incubated in mouse serum for an hour prior to the in vitro testing against a panel of selected gram-positive and gram-negative bacteria strains. All compounds were also pre-incubated in water for an hour prior to testing as control.

[2] = test system: S. aureus GC 1079; experiment: MIC, broth microdilution; settings: Staphylococcus aureus
[3] = test system: E. coli GC 3226; experiment: MIC, broth microdilution; settings: Escherichia coli
Experimental: as §1
Representative compounds were first incubated in mouse serum for an hour prior to the in vitro testing against a panel of selected gram-positive and gram-negative bacteria strains. All compounds were also pre-incubated in water for an hour prior to testing as control. Representative compounds of Formula I were incubated in human serum prior to MIC determination.

[4] = test system: E. faecalis GC 4555; experiment: MIC, broth microdilution; settings: Enterococcus faecalis
[5] = test system: E. coli GC 2270; experiment: MIC, broth microdilution; settings: Escherichia coli
[6] = test system: E. coli GC 2271; experiment: MIC, broth microdilution; settings: Escherichia coli
[7] = test system: S. aureus GC 6469; experiment: MIC, broth microdilution; settings: Staphylococcus aureus
[8] = test system: E. coli GC 2235; experiment: MIC, broth microdilution; settings: Escherichia coli
[9] = test system: E. coli GC 2233; experiment: MIC, broth microdilution; settings: Escherichia coli
Experimental: as §1, §2

[10] = test system: Staph.; experiment: Range of MIC for Staph. strains, including MRSA; settings: Staphylococcus aureus, MRSA
[11] = test system: E. coli GC 1073; experiment: MIC, broth microdilution; settings: Escherichia coli
[12] = test system: S. agalactiae GC 4564; experiment: MIC, broth microdilution; settings: Streptococcus agalactiae
[13] = test system: S. aureus GC 6335; experiment: MIC, broth microdilution; settings: Staphylococcus aureus
[14] = test system: E. coli; experiment: Range of MIC for E. coli strains; settings: Escherichia coli
[15] = test system: S. pyogenes GC 4563; experiment: MIC, broth microdilution; settings: Streptococcus pyogenes
[16] = test system: E. faecium GC 2243; experiment: MIC, broth microdilution; settings: Enterococcus faecium
[17] = test system: E. faecium GC 4556; experiment: MIC, broth microdilution; settings: Enterococcus faecium
[18] = test system: S. typhimurium GC 2172; experiment: MIC, broth microdilution; settings: Salmonella enterica, TYPHIMURIUM
[19] = test system: c. albicans GC 3066; experiment: MIC, broth microdilution; settings: for MIC: Candida albicans, GC3066, read-out: MINIMAL INHIBITORY CONCENTRATION MIC; for MINIMAL INHIBITORY CONCENTRATION MIC: pre-incubated in Water
[20] = test system: E. coli GC 2236; experiment: MIC, broth microdilution; settings: Escherichia coli
Experimental: Antimicrobial susceptibility testing. The in vitro activities of the antibiotics are determined by the broth microdilution method as recommended by the National Committee for Clinical Laboratory Standards (NCCLS) (1). Mueller-Hinton II broth (MHBII)(BBL Cockeysville, Md.) is the medium employed in the testing procedures. Microtiter plates containing serial dilutions of each antimicrobial agent are inoculated with each organism to yield the appropriate density (10^5 CFU/ml) in a 100 μl final volume. The plates are incubated for 18-22 hours at 35° C. in ambient air. […] Standard Pharmacological Test Procedures
Presented in Tables I-XIII are representative compounds of Formula I which were evaluated against a panel of 40 selected gram-positive and gram-negative bacteria strains by pre-incubation in water, mouse serum or human serum. Representative compounds were first incubated in mouse serum for an hour prior to the in vitro testing against a panel of selected gram-positive and gram-negative bacteria strains. All compounds were also pre-incubated in water for an hour prior to testing as control. Representative compounds of Formula I were incubated in human serum prior to MIC determination.

[21] = GC2265, read-out: MINIMAL INHIBITORY CONCENTRATION MIC, pre-incubated in Mouse Serum
[22] = GC2265, read-out: MINIMAL INHIBITORY CONCENTRATION MIC, pre-incubated in Water
[23] = GC1079, read-out: MINIMAL INHIBITORY CONCENTRATION MIC, pre-incubated in Mouse Serum
[24] = GC1079, read-out: MINIMAL INHIBITORY CONCENTRATION MIC, pre-incubated in Water
[25] = GC3226, read-out: MINIMAL INHIBITORY CONCENTRATION MIC, pre-incubated in Mouse Serum
[26] = GC3226, read-out: MINIMAL INHIBITORY CONCENTRATION MIC, pre-incubated in Water
[27] = GC4555, read-out: MINIMAL INHIBITORY CONCENTRATION MIC, pre-incubated in Mouse Serum
[28] = GC4555, read-out: MINIMAL INHIBITORY CONCENTRATION MIC, pre-incubated in Water
[29] = GC2270, read-out: MINIMAL INHIBITORY CONCENTRATION MIC, pre-incubated in Mouse Serum
[30] = GC2270, read-out: MINIMAL INHIBITORY CONCENTRATION MIC, pre-incubated in Water
[31] = GC2271, read-out: MINIMAL INHIBITORY CONCENTRATION MIC, pre-incubated in Mouse Serum
[32] = GC2271, read-out: MINIMAL INHIBITORY CONCENTRATION MIC, pre-incubated in Water
[33] = GC6469, read-out: MINIMAL INHIBITORY CONCENTRATION MIC, pre-incubated in Mouse Serum
[34] = GC6469, read-out: MINIMAL INHIBITORY CONCENTRATION MIC, pre-incubated in Water
[35] = GC2235, read-out: MINIMAL INHIBITORY CONCENTRATION MIC, pre-incubated in Mouse Serum
[36] = GC2235, read-out: MINIMAL INHIBITORY CONCENTRATION MIC, pre-incubated in Water
[37] = GC2233, read-out: MINIMAL INHIBITORY CONCENTRATION MIC, pre-incubated in Mouse Serum
[38] = GC2233, read-out: MINIMAL INHIBITORY CONCENTRATION MIC, pre-incubated in Water
[39] = read-out: Range of MIC, Staph (Mouse Serum)
[40] = GC1073, read-out: MINIMAL INHIBITORY CONCENTRATION MIC, pre-incubated in Mouse Serum
[41] = GC1073, read-out: MINIMAL INHIBITORY CONCENTRATION MIC, pre-incubated in Water
[42] = GC4564, read-out: MINIMAL INHIBITORY CONCENTRATION MIC, pre-incubated in Mouse Serum
[43] = GC4564, read-out: MINIMAL INHIBITORY CONCENTRATION MIC, pre-incubated in Water
[44] = GC6335, read-out: MINIMAL INHIBITORY CONCENTRATION MIC, pre-incubated in Mouse Serum
[45] = GC6335, read-out: MINIMAL INHIBITORY CONCENTRATION MIC, pre-incubated in Water
[46] = 20 h, read-out: Range of MIC, E. coli (Mouse Serum)
[47] = GC4563, read-out: MINIMAL INHIBITORY CONCENTRATION MIC, pre-incubated in Mouse Serum
[48] = GC4563, read-out: MINIMAL INHIBITORY CONCENTRATION MIC, pre-incubated in Water
[49] = GC2243, read-out: MINIMAL INHIBITORY CONCENTRATION MIC, pre-incubated in Mouse Serum
[50] = GC2243, read-out: MINIMAL INHIBITORY CONCENTRATION MIC, pre-incubated in Water
[51] = GC4556, read-out: MINIMAL INHIBITORY CONCENTRATION MIC, pre-incubated in Mouse Serum
[52] = GC4556, read-out: MINIMAL INHIBITORY CONCENTRATION MIC, pre-incubated in Water
[53] = read-out: MINIMAL INHIBITORY CONCENTRATION MIC, pre-incubated in Mouse Serum
[54] = read-out: MINIMAL INHIBITORY CONCENTRATION MIC, pre-incubated in Water
[55] = GC2236, read-out: MINIMAL INHIBITORY CONCENTRATION MIC, pre-incubated in Mouse Serum
[56] = GC2236, read-out: MINIMAL INHIBITORY CONCENTRATION MIC, pre-incubated in Water

SMILES: CCCN(CC(=O)Nc1cc(N(C)C)c2c(c1O)C(=O)C1=C(O)[C@]3(O)C(=O)C(C(N)=O)=C(O)[C@@H](N(C)C)[C@@H]3C[C@@H]1C2)C(=O)OCOC(=O)c1cc(C)cc(C)c1 [Example 26, ({[(2-{[(5aR,6aS,7S,10aS)-9-(aminocarbonyl)-4,7-bis(dimethylamino)-1,8,10a,11-tetrahydroxy-10,12-dioxo-5,5a,6,6a,7,10,10a,12-octahydrotetracen-2-yl]amino}-2-oxoethyl)(propyl)amino]carbonyl}oxy)methyl 3,5-dimethylbenzoate]
- MIC [1, 21]: 2 µg/mL (≈ 2.57 µM)
- MIC [1, 22]: 8 µg/mL (≈ 10.3 µM)
- MIC [2, 23]: 1 µg/mL (≈ 1.29 µM)
- MIC [2, 24]: 2 µg/mL (≈ 2.57 µM)
- MIC [3, 25]: 2 µg/mL (≈ 2.57 µM)
- MIC [3, 26]: > 64 µg/mL
- MIC [4, 27]: 1 µg/mL (≈ 1.29 µM)
- MIC [4, 28]: 4 µg/mL (≈ 5.14 µM)
- MIC [5, 29]: 1 µg/mL (≈ 1.29 µM)
- MIC [5, 30]: > 64 µg/mL
- MIC [6, 31]: 1 µg/mL (≈ 1.29 µM)
- MIC [6, 32]: > 64 µg/mL
- MIC [7, 33]: 1 µg/mL (≈ 1.29 µM)
- MIC [7, 34]: 2 µg/mL (≈ 2.57 µM)
- MIC [8, 35]: 1 µg/mL (≈ 1.29 µM)
- MIC [8, 36]: 64 µg/mL (≈ 82.3 µM)
- MIC [9, 37]: 2 µg/mL (≈ 2.57 µM)
- MIC [9, 38]: > 64 µg/mL
- MIC [10, 39]: 0.25 to 1 µg/mL (≈ 0.321 to 1.29 µM)
- MIC ([10]; read-out: Range of MIC, Staph (Water)): 0.25 to 4 µg/mL (≈ 0.321 to 5.14 µM)
- MIC ([10]; read-out: Range of MIC, Staph. (mouse serum)): 0.25 to 1 µg/mL (≈ 0.321 to 1.29 µM)
- MIC ([10]; read-out: Range of MIC, Staph. (water)): 0.25 to 4 µg/mL (≈ 0.321 to 5.14 µM)
- MIC [11, 40]: 2 µg/mL (≈ 2.57 µM)
- MIC [11, 41]: > 64 µg/mL
- MIC [12, 42]: 1 µg/mL (≈ 1.29 µM)
- MIC [12, 43]: 2 µg/mL (≈ 2.57 µM)
- MIC [13, 44]: 0.5 µg/mL (≈ 0.643 µM)
- MIC [13, 45]: 1 µg/mL (≈ 1.29 µM)
- MIC [14, 46]: 1 to 4 µg/mL (≈ 1.29 to 5.14 µM)
- MIC ([14]; read-out: Range of MIC, E. coli (mouse serum)): 1 to 4 µg/mL (≈ 1.29 to 5.14 µM)
- MIC [15, 47]: 0.25 µg/mL (≈ 0.321 µM)
- MIC [15, 48]: 0.25 µg/mL (≈ 0.321 µM)
- MIC [16, 49]: 1 µg/mL (≈ 1.29 µM)
- MIC [16, 50]: 2 µg/mL (≈ 2.57 µM)
- MIC [17, 51]: 1 µg/mL (≈ 1.29 µM)
- MIC [17, 52]: 4 µg/mL (≈ 5.14 µM)
- MIC [18, 53]: 16 µg/mL (≈ 20.6 µM)
- MIC [18, 54]: > 64 µg/mL
- MIC [19]: > 64 µg/mL
- MINIMAL INHIBITORY CONCENTRATION MIC [19]: >64 UG/ML
- MIC [20, 55]: 2 µg/mL (≈ 2.57 µM)
- MIC [20, 56]: > 64 µg/mL

SMILES: CCCCN(CC(=O)Nc1cc(N(C)C)c2c(c1O)C(=O)C1=C(O)[C@]3(O)C(=O)C(C(N)=O)=C(O)[C@@H](N(C)C)[C@@H]3C[C@@H]1C2)C(=O)OCOC(=O)c1ccc(-c2ccccc2)cc1 [Example 21, ({[(2-{[(5aR,6aS,7S,10aS)-9-(aminocarbonyl)-4,7-bis(dimethylamino)-1,8,10a,11-tetrahydroxy-10,12-dioxo-5,5a,6,6a,7,10,10a,12-octahydrotetracen-2-yl]amino}-2-oxoethyl)(butyl)amino]carbonyl}oxy)methyl 1,1′-biphenyl-4-carboxylate]
- MIC [1, 21]: 1 µg/mL (≈ 1.19 µM)
- MIC [1, 22]: 64 µg/mL (≈ 76.2 µM)
- MIC [2, 23]: 4 µg/mL (≈ 4.76 µM)
- MIC [2, 24]: > 64 µg/mL
- MIC [3, 25]: 8 µg/mL (≈ 9.52 µM)
- MIC [3, 26]: > 64 µg/mL
- MIC [4, 27]: 1 µg/mL (≈ 1.19 µM)
- MIC [4, 28]: 64 µg/mL (≈ 76.2 µM)
- MIC [5, 29]: 1 µg/mL (≈ 1.19 µM)
- MIC [5, 30]: > 64 µg/mL
- MIC [6, 31]: 0.5 µg/mL (≈ 0.595 µM)
- MIC [6, 32]: > 64 µg/mL
- MIC [7, 33]: 4 µg/mL (≈ 4.76 µM)
- MIC [7, 34]: > 64 µg/mL
- MIC [8, 35]: 0.5 µg/mL (≈ 0.595 µM)
- MIC [8, 36]: > 64 µg/mL
- MIC [9, 37]: 1 µg/mL (≈ 1.19 µM)
- MIC [9, 38]: > 64 µg/mL
- MIC ([10]; read-out: Minimum inhibitory concentration (MIC), Staph. (mouse serum)): 1 to 4 µg/mL (≈ 1.19 to 4.76 µM)
- MIC [10, 39]: 1 to 4 µg/mL (≈ 1.19 to 4.76 µM)
- MIC [11, 40]: 1 µg/mL (≈ 1.19 µM)
- MIC [11, 41]: > 64 µg/mL
- MIC [12, 42]: 0.5 µg/mL (≈ 0.595 µM)
- MIC [12, 43]: 8 µg/mL (≈ 9.52 µM)
- MIC [13, 44]: 2 µg/mL (≈ 2.38 µM)
- MIC [13, 45]: 64 µg/mL (≈ 76.2 µM)
- MIC [14, 46]: 0.5 to 8 µg/mL (≈ 0.595 to 9.52 µM)
- MIC ([14]; read-out: Minimum inhibitory concentration (MIC), E. coli (mouse serum)): 0.5 to 8 µg/mL (≈ 0.595 to 9.52 µM)
- MIC ([14]; read-out: Minimum inhibitory concentration (MIC), E. coli (water)): > 64 µg/mL
- MIC ([14]; read-out: Range of MIC, E. coli (Water)): > 64 µg/mL
- MIC [15, 47]: 0.25 µg/mL (≈ 0.298 µM)
- MIC [15, 48]: 0.12 µg/mL (≈ 0.143 µM)
- MIC [16, 49]: 0.5 µg/mL (≈ 0.595 µM)
- MIC [16, 50]: 8 µg/mL (≈ 9.52 µM)
- MIC [17, 51]: 2 µg/mL (≈ 2.38 µM)
- MIC [17, 52]: 64 µg/mL (≈ 76.2 µM)
- MIC [18, 53]: 4 µg/mL (≈ 4.76 µM)
- MIC [18, 54]: > 64 µg/mL
- MIC [19]: > 64 µg/mL
- MINIMAL INHIBITORY CONCENTRATION MIC [19]: >64 UG/ML
- MIC [20, 55]: 1 µg/mL (≈ 1.19 µM)
- MIC [20, 56]: > 64 µg/mL
